This note sets out measurements from paper PMC10949195, “Exponential Combination of a and e/g Intracellular Peptide Libraries Identifies a Selective ATF3 Inhibitor” (ACS Chemical Biology, 2024).

The nature of data set [1]: Peptide permeability assay (PAMPA). The class given is in vitro ADME. An excerpt:
Fig S4: CD data for ATF3 interacting with ATF3W-a and ATF3W-eg.
Peptide permeability assay: The PAMPA assay measures permeability across an artificial membrane. This method provides an in vitro model for passive diffusion. Passive diffusion is an important factor in determining transport through the gastrointestinal tract, penetration of the blood brain barrier, as well as transport across cell membranes. Permeability can also be influenced by several other mechanisms including paracellular transport and active uptake or efflux which are not assessed in PAMPA. Therefore, PAMPA provides a simplistic approach to permeability by only measuring a single mechanism. […]
Peptide permeability assay: To evaluate the peptide permeability, the BD™ pre-coated PAMPA plate system was employed. […] The peptide concentrations in both plates were determined by UV spectroscopy after the assembly plate system were incubated at room temperature for 5 hours, and the peptide permeability and mass retention were calculated by using the PAMPA plate system formula which recommended in the manufacture manual. […]
Serum stability: The quantity of peptide detected by LC-MS is plotted relative to the starting point […]
Fig S5: Shown are serum stability of ATF3W-aeg. The quantity of peptide detected by LC-MS is plotted […]
On the technique in general: The PAMPA barrier holds no transporters, so it reflects passive diffusion.

The next data set addresses T1, ATF3 (Homo sapiens, UniProt P18847).
T1 construct: We focus on the selective targeting of the ATF3 leucine zipper dimerization domain using intracellular peptide library screening; made in house; host or cells: chemical solid-phase peptide synthesis (no expression host)
T1 sequence (P18847 110-143): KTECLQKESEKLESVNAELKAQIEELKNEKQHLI
The data set can be described thus: Size-exclusion chromatography of ATF3-ATF3W_aeg mixture. The note with it: Superdex Peptide 10/300 GL, RT; 20 μM total peptide. It is filed as binding. The protocol: During SEC experiments, monomeric ATF3 (Figure 8, blue line) and ATF3W_aeg (Figure 8, green line) eluted at approximately 20 min. These contrast with the dimeric profile observed for ATF3-ATF3W_aeg (Figure 8, black line), which occurred at approximately 19 min. For all samples, elution profiles were consistent with either a validated monomer or dimer elution pattern.[15]
Figure 8 SEC profiles indicate that ATF3W_aeg binds ATF3. Shown are size exclusion chromatography profiles for interacting peptides. The peak at approx 19 min for the ATF3-ATF3W_aeg mixture (black trace) represents a dimeric sample while ATF3 (blue trace) and ATF3W_aeg (green trace) generate a peak at approx 20 min, indicating the presence of a monomer. These experiments, undertaken at a total peptide concentration of 20 μM, provide additional evidence for selectivity of the ATF3-ATF3W_aeg interaction. Arrows show controls from previous peptides with elution times for a 32 mer Fos monomeric peptide (20 min) and a 37 mer cJun–FosW heterodimer (18.5 min).[15]
Size-exclusion experiments were performed at RT using a Superdex Peptide 10/300 GL column (GE Healthcare Life Sciences) as described previously.[23]
On the technique in general: In gel filtration, larger molecules generally elute earlier.

The test system of data set [2] is M2 macrophages differentiated from the human THP-1 monocytic cell line. Put plainly: THP-1 polarization assay and CCL-4 ELISA. The class given is cell-based. As to conditions: M2 macrophages from THP-1 (IL-4 polarized); 20 μM peptide with NLS-TAT appendage; 48 h; versus untreated. An excerpt:
ATF3 is a transcriptional repressor that regulates both the extent and duration of pro-inflammatory gene expression.[17] Specifically, ATF3 has been implicated in the transcriptional repression of chemokines including chemokine (C–C motif) ligand 4 (CCL4),[18] also known as macrophage inflammatory protein (MIP-1β), which promotes recruitment of additional immune cells to inflamed tissues. In the context of cancer, ATF3 activity counters antitumor immunity and promotes tumor growth. We therefore explored the effect of the ATF3W-aeg antagonist peptide on CCL4 expression in M2 anti-inflammatory macrophages differentiated from the human THP-1 monocytic cell line. […]
Figure 10 ATF3W-aeg peptide stimulates expression of pro-inflammatory cytokine in M2 macrophages. CCL4 protein levels were measured by ELISA from supernatants of M2 macrophage cultures treated with either 20 μM ATF3W-aeg or negative control peptide (****p < 0.0001). […]
THP-1 cells were seeded in 12-well format at a concentration of 5 × 10^5 cells/well and treated with 7.5 ng/mL Phorbol 12-Myristate 13-Acetate (PMA, Sigma-Aldrich) in RPMI media supplemented with 10% FBS and 55 μM β-mercaptoethanol (BME). […] After 48 h, supernatants were collected and clarified by centrifugation, and the CCL-4 concentration was assessed by ELISA (MIP-1b Human Instant ELISA Kit, ThermoFisher Scientific) according to the manufacturer’s protocol.

The substance “Ac-ELAALEQKAYALKQENAALEKEVAALEQKIAALK-NH2 (N-terminus and C-terminus assumed) [ATF3W_aeg]” displayed a PAMPA mass retention in data set [1] (BD pre-coated PAMPA plate system, 200uM peptide in PBS, room temperature, 5 hours, UV spectroscopy) of 5.8%. Further, in data set [1] (category by Log(Permeability) larger than -6, industry standard in BD PAMPA manual), the PAMPA permeability category entry is “high permeability”. On ATF3, the “SEC elution time of ATF3-ATF3W_aeg mixture” value was “approximately 19 min” and the “oligomeric state of ATF3-ATF3W_aeg interaction by SEC” value is listed as “exclusively dimeric”. For the same substance, the “effect on CCL4 expression (protein in supernatant, ELISA)” value in data set [2] is “significantly increased CCL4 expression”.
